From publication PMC9898191 (Nature chemical biology, 2022)
Blank lines part the entries; values can stand above or below the compound they belong to.

Experiments:
Syk in MV4-11 cells = Syk in MV4-11 cells (Homo sapiens, UniProt P43405); assay: WC36B-streptavidin pull down assay with immunoblotting; type: binding
[1] = system: PM translocation of EGFP-Syk WT in Syk−/− DT40 cells; assay: Subcellular localization of EGFP-Syk WT in IgM-stimulated Syk-null DT40 cells; type: cell-based; settings: 10 nM overnight
[2] = system: WC36B-binding cellular proteins of MV4-11 cells; assay: Mass spectrometry-based proteomics of WC36B-binding cellular proteins; design: species or system human; settings: biotin as negative control
[3] = system: ZAP-70 phosphorylation in Jurkat T cells; assay: Western blot of ZAP-70 phosphorylation in Jurkat T cells; type: cell-based; settings: 5 μM overnight, OKT3 stimulated
[4] = system: phosphorylation of ERK1/2 and STAT3/5 in RAS-mutated HL60 cells; assay: Western blot of IgG2-stimulated phosphorylation in HL-60 cells; type: cell-based; settings: 5 μM
HL60 cells = assay: XTT cell proliferation assay, HL-60 cells; type: cell-based
[5] = system: phosphorylation of Syk, ERK1/2 and STAT3/5 in entospletinib-resistant MV4-11 cells; settings: 5 μM

Structure (SMILES): Nc1ncnc2c1ncn2[C@@H]1O[C@H](COP(=O)(O)OP(=O)(O)OP(=O)(O)O)[C@@H](O)[C@H]1O [ATP]
competition with WC36B for Syk binding (Syk in MV4-11 cells; WC36 10 μM, entospletinib 10 μM, ATP 1 mM): only WC36 was able to compete

Structure (SMILES): CS(=O)(=O)N1CCN(Cc2cc3nc(-c4cccc5[nH]ncc45)nc(N4CCOCC4)c3s2)CC1 [GDC-0941]
PM translocation of EGFP-Syk WT [1]: greatly suppressed

capture of Syk by streptavidin beads pulldown (Syk in MV4-11 cells; MV4-11 cells, 5 μM, 24 h): targets Syk
Structure (SMILES): [N-]=[N+]=C(C(=O)NCCNC(=O)CCCC[C@H]1SC[C@H]2NC(=O)N[C@H]21)C(Nc1ncccn1)c1c[nH]c2ccccc12 (some centres unmarked) [WC36B]
proteins captured compared with biotin control [2]: Syk is the single major protein

Structure (SMILES): c1cn2cc(-c3ccc4cn[nH]c4c3)nc(Nc3ccc(N4CCOCC4)cc3)c2n1 [entospletinib]
inhibition of ZAP-70 phosphorylation [3]: significantly inhibited
suppression of phosphorylation of ERK1/2 and STAT3/5 [4]: could not suppress phosphorylation
suppression of proliferation (XTT assay) (HL60 cells): ineffective
inhibition of phosphorylation of Syk, ERK1/2 and STAT3/5 [5]: could not inhibit phosphorylation
